Key:
Test in all cases: relative viability (nuclei count vs DMSO), 5 days (fraction); higher = more cells survive
[1] = system: NCI-H1299
How it was run: (§1)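 Five library-drug doses in √10 steps were combined with a fixed anchor-drug dose, or a single drug was given alone, by pin tool to lung cancer cell lines in 1536-well plates the day after seeding. Nuclei were stained and counted after 5 days. Relative viability is the nuclei count in treated wells over that in vehicle wells, taken as the median of duplicate plates.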

[2] = system: LK-2
How it was run: as §1

[3] = system: NCI-H522
How it was run: as §1

[4] = system: A549
How it was run: as §1

[5] = system: NCI-H1648
How it was run: as §1

[6] = system: LCLC-103H
How it was run: as §1

[7] = system: EBC-1
How it was run: as §1

[8] = system: NCI-H1355
How it was run: as §1

[9] = system: Calu-6
How it was run: as §1

[10] = system: NCI-H1666
How it was run: as §1

[11] = system: NCI-H1703
How it was run: as §1

[12] = system: IA-LM
How it was run: as §1

[13] = system: COR-L 105
How it was run: as §1

[14] = system: NCI-H520
How it was run: as §1

Nc1ccn([C@@H]2O[C@H](CO)[C@@H](O)[C@@H]2O)c(=O)n1 [Cytarabine] + O=C(c1cc(Cc2n[nH]c(=O)c3ccccc23)ccc1F)N1CCN(C(=O)C2CC2)CC1 [Olaparib] (partner 8 µM)
relative viability ([1]; first compound 0.005 µM): 0.991
relative viability ([1]; first compound 0.01581 µM): 0.93
relative viability ([1]; first compound 0.05 µM): 0.987
relative viability ([1]; first compound 0.1581 µM): 0.985
relative viability ([1]; first compound 0.5 µM): 0.94
relative viability ([2]; first compound 0.005 µM): 0.659
relative viability ([2]; first compound 0.01581 µM): 0.5
relative viability ([2]; first compound 0.05 µM): 0.316
relative viability ([2]; first compound 0.1581 µM): 0.164
relative viability ([2]; first compound 0.5 µM): 0.148
relative viability ([3]; first compound 0.005 µM): 0.654
relative viability ([3]; first compound 0.01581 µM): 0.602
relative viability ([3]; first compound 0.05 µM): 0.813
relative viability ([3]; first compound 0.1581 µM): 0.545
relative viability ([3]; first compound 0.5 µM): 0.426
relative viability ([4]; first compound 0.005 µM): 0.318
relative viability ([4]; first compound 0.01581 µM): 0.242
relative viability ([4]; first compound 0.05 µM): 0.0968
relative viability ([4]; first compound 0.1581 µM): 0.0579
relative viability ([4]; first compound 0.5 µM): 0.0331
relative viability ([5]; first compound 0.005 µM): 0.904
relative viability ([5]; first compound 0.01581 µM): 0.793
relative viability ([5]; first compound 0.05 µM): 0.954
relative viability ([5]; first compound 0.1581 µM): 0.319
relative viability ([5]; first compound 0.5 µM): 0.377
relative viability ([6]; first compound 0.005 µM): 0.717
relative viability ([6]; first compound 0.01581 µM): 0.725
relative viability ([6]; first compound 0.05 µM): 0.906
relative viability ([6]; first compound 0.1581 µM): 0.803
relative viability ([6]; first compound 0.5 µM): 0.792
relative viability ([7]; first compound 0.005 µM): 0.725
relative viability ([7]; first compound 0.01581 µM): 0.569
relative viability ([7]; first compound 0.05 µM): 0.476
relative viability ([7]; first compound 0.1581 µM): 0.375
relative viability ([7]; first compound 0.5 µM): 0.241
relative viability ([8]; first compound 0.005 µM): 0.731
relative viability ([8]; first compound 0.01581 µM): 0.673
relative viability ([8]; first compound 0.05 µM): 0.57
relative viability ([8]; first compound 0.1581 µM): 0.396
relative viability ([8]; first compound 0.5 µM): 0.344
relative viability ([9]; first compound 0.005 µM): 0.597
relative viability ([9]; first compound 0.01581 µM): 0.488
relative viability ([9]; first compound 0.05 µM): 0.41
relative viability ([9]; first compound 0.1581 µM): 0.337
relative viability ([9]; first compound 0.5 µM): 0.225
relative viability ([10]; first compound 0.005 µM): 0.675
relative viability ([10]; first compound 0.01581 µM): 0.754
relative viability ([10]; first compound 0.05 µM): 0.694
relative viability ([10]; first compound 0.1581 µM): 0.613
relative viability ([10]; first compound 0.5 µM): 0.684
relative viability ([11]; first compound 0.005 µM): 0.338
relative viability ([11]; first compound 0.01581 µM): 0.302
relative viability ([11]; first compound 0.05 µM): 0.196
relative viability ([11]; first compound 0.1581 µM): 0.0956
relative viability ([11]; first compound 0.5 µM): 0.0977
relative viability ([12]; first compound 0.005 µM): 0.626
relative viability ([12]; first compound 0.01581 µM): 0.714
relative viability ([12]; first compound 0.05 µM): 0.55
relative viability ([12]; first compound 0.1581 µM): 0.372
relative viability ([12]; first compound 0.5 µM): 0.268
relative viability ([13]; first compound 0.005 µM): 0.841
relative viability ([13]; first compound 0.01581 µM): 0.791
relative viability ([13]; first compound 0.05 µM): 0.417
relative viability ([13]; first compound 0.1581 µM): 0.469
relative viability ([13]; first compound 0.5 µM): 0.358
relative viability ([14]; first compound 0.005 µM): 0.276
relative viability ([14]; first compound 0.01581 µM): 0.272
relative viability ([14]; first compound 0.05 µM): 0.337
relative viability ([14]; first compound 0.1581 µM): 0.263
relative viability ([14]; first compound 0.5 µM): 0.239

COc1cc2nccc(Oc3ccc(NC(=O)Nc4cc(C)on4)c(Cl)c3)c2cc1OC [Tivozanib] + O=C(CCCCCCC(=O)Nc1ccccc1)NO [Vorinostat] (partner 1 µM)
relative viability ([2]; first compound 0.005 µM): 0.317
relative viability ([2]; first compound 0.01581 µM): 0.352
relative viability ([2]; first compound 0.05 µM): 0.33
relative viability ([2]; first compound 0.1581 µM): 0.185
relative viability ([2]; first compound 0.5 µM): 0.186
relative viability ([3]; first compound 0.005 µM): 1
relative viability ([3]; first compound 0.01581 µM): 1
relative viability ([3]; first compound 0.05 µM): 0.822
relative viability ([3]; first compound 0.1581 µM): 0.721
relative viability ([3]; first compound 0.5 µM): 0.809
relative viability ([5]; first compound 0.005 µM): 0.453
relative viability ([5]; first compound 0.01581 µM): 0.706
relative viability ([5]; first compound 0.05 µM): 0.804
relative viability ([5]; first compound 0.1581 µM): 0.796
relative viability ([5]; first compound 0.5 µM): 0.423
relative viability ([6]; first compound 0.005 µM): 0.668
relative viability ([6]; first compound 0.01581 µM): 0.809
relative viability ([6]; first compound 0.05 µM): 0.86
relative viability ([6]; first compound 0.1581 µM): 0.824
relative viability ([6]; first compound 0.5 µM): 0.656
relative viability ([8]; first compound 0.005 µM): 0.58
relative viability ([8]; first compound 0.01581 µM): 0.612
relative viability ([8]; first compound 0.05 µM): 0.68
relative viability ([8]; first compound 0.1581 µM): 0.437
relative viability ([8]; first compound 0.5 µM): 0.588
relative viability ([10]; first compound 0.005 µM): 1.07
relative viability ([10]; first compound 0.01581 µM): 1.01
relative viability ([10]; first compound 0.05 µM): 1.11
relative viability ([10]; first compound 0.1581 µM): 1.09
relative viability ([10]; first compound 0.5 µM): 0.978
relative viability ([12]; first compound 0.005 µM): 0.93
relative viability ([12]; first compound 0.01581 µM): 0.981
relative viability ([12]; first compound 0.05 µM): 0.872
relative viability ([12]; first compound 0.5 µM): 0.836
relative viability ([13]; first compound 0.005 µM): 0.696
relative viability ([13]; first compound 0.01581 µM): 0.743
relative viability ([13]; first compound 0.05 µM): 0.801
relative viability ([13]; first compound 0.1581 µM): 0.821
relative viability ([13]; first compound 0.5 µM): 0.794
relative viability ([14]; first compound 0.005 µM): 0.729
relative viability ([14]; first compound 0.01581 µM): 0.754
relative viability ([14]; first compound 0.05 µM): 0.691
relative viability ([14]; first compound 0.1581 µM): 0.675
relative viability ([14]; first compound 0.5 µM): 0.607

Source: the supplement of paper PMC10307832
